These results are taken from patent publication US9415106B2, “α-form zinc-phthalocyanine nanowires having enhanced water solubility and water dispersibility, composite of an α-form zinc-phthalocyanine nanowire/phenothiazine, and method for preparing same” (POHANG UNIVERSITY OF SCIENCE AND TECHNOLOGY INDUSTRY …, priority 2011, dated 2016).

Data set [1] can be described thus: Water solubility, dispersibility and stability of aqueous solution after sonication. The class given is physicochemical. The protocol: An α-form ZnPc nanowire solution was prepared by adding 1 mg of α-form ZnPc nanowires collected from Si substrates into 5 ml of water, followed by sonication for various times in a bath sonicator (UC-10, JEIOTECH). The final solution was transferred for the measurement of optical absorbance using a UV-vis spectrometer (Agilent 8453 spectrophotometer). The concentration of the α-form ZnPc nanowire solution was determined by measurement of optical absorbance at 219 nm. The calibration curve was made by measuring the optical absorbance of a sequentially diluted solution at 219 nm.

The nature of data set [2]: Photothermal property: temperature change of aqueous solutions upon laser irradiation. It counts as physicochemical. The following applies: 3 W/cm^2, 3 minutes. The protocol: The PT property was examined by monitoring temperature changes of α-form ZnPc nanowire aqueous solutions (60, 80, 120 mg/L) upon light illumination at two different wavelengths (λ) of 660 nm, at which the highest absorption occurs, and 808 nm, at which most biological systems become transparent, at the power of 3 W/cm^2.
The α-form ZnPc nanowire solution and zinc phthalocyanine tetrasulfonate (ZnPcS4) solutions at various concentrations (60, 80, 120 mg/L) were irradiated using a 660/808 nm laser (diode laser, JENOPTIK unique-mode GmbH, Germany) at 3 W/cm^2. The temperature of each solution was measured with a thermocouple connected temperature controller (Hanyoung, Korea) at 20-second intervals for a total of 3 minutes. Three sets per each solution were measured.

The subject of data set [3] is KB cells. Put plainly: ROS generation in KB cells (Image-iT LIVE ROS Kit, H2DCFDA fluorescence). The class given is cell-based, human. The following applies: irradiated with NIR 808 nm, 3 W/cm^2. The protocol:
The PD activity of α-form ZnPc nanowire was proven by detecting reactive oxygen species generated upon illumination with NIR upon irradiation with NIR (λ=808 nm) laser. The reactive oxygen species generated from NIR-activated KB cells containing α-form ZnPc nanowires was assessed using Image-iT™ LIVE Reactive Oxygen Species (ROS) Kit.
This experiment is based on 5-(and-6)-carboxy-2′7′-dichlorodihydrofluorescein diacetate (carboxy-H2DCFDA) as a fluorogenic marker for ROS permeated viable cells. In the presence of ROS, the reduced carboxy-H2DCFDA is supposed to be oxidized to emit bright green fluorescence. Therefore, the oxidatively stressed cells by ROS could be recognized by green fluorescence.
The generation of reactive oxygen species (ROS) was monitored using Image-iT™ LIVE Reactive Oxygen Species Kit based on H2DCFDA (Molecular Probes/Invitrogen), following the manufacturer's protocol. Pre-seeded epidermoid mouth carcinoma cells (KB cells) were incubated with ZnPc nanowire solution (120 mg/L) at 37° C. with 5% CO2 for 18 hours. Then, after washing the cells thoroughly with phosphate buffer saline (PBS), the cells were irradiated with an 808 nm laser. […] In the presence of ROS, the reduced fluorescein compound is oxidized and emits bright green fluorescence. Fluorescence intensity was measured at 529 nm using a fluorescence spectrometer (Cary Eclipse, Varian).

Take `[Zn+2].c1ccc2c(c1)-c1nc-2nc2[n-]c(nc3nc([n-]c4nc(n1)-c1ccccc1-4)-c1ccccc1-3)c1ccccc21` [ZnPc powder, zinc-phthalocyanine]: the “water solubility (qualitative)” value in data set [1] is recorded as “did not increase”.
With “zinc phthalocyanine tetrasulfonate [ZnPcS4]”, the “temperature of solution upon laser irradiation” value in data set [2] (660 nm (FIGS. 18, 19), from room temperature, 60-120 mg/L) is listed as “similar”; in data set [2] (808 nm, 120 mg/L), “negligible temperature changes”. Also, the “amount of ROS generated (green fluorescence)” value in data set [3] is listed as “insignificant”.
